From article PMC5925453 (EBioMedicine, 2018)
pIC50: −log10 of the molar value.

Legend:
Assay type in all cases: cell-based
[1] = tested on: STAT3 and FAK phosphorylation; assay: Western blotting, dasatinib or TPX-0005, PC9 and H1975 cell lines; conditions: dasatinib 50 and 100 μM respectively, 24 h
[2] = tested on: HCC827 (exon 19 deletion) cells; assay: Cell viability assay; conditions: Homo sapiens, HCC827, 72 h
[3] = tested on: 11–18 (Leu858Arg) cells; assay: cells; conditions: 72 h
[4] = tested on: HCC4006 (exon 19 deletion) cells; assay: Cell viability assay; conditions: Homo sapiens, HCC4006, 72 h
[5] = tested on: PC9 (exon 19 deletion) cells; assay: Cell viability assay; conditions: for pIC50: Homo sapiens, PC-9, 72 h
[6] = tested on: EGFR downstream signal transduction pathways and RTKs; assay: Western blotting, osimertinib with TPX-0005, PC9, 11–18 and H1975 cell lines; conditions: TPX-0005 1 μM, 24 h
[7] = tested on: H1975 (Leu858Arg and Thr790Met) cells; assay: cells; conditions: for pIC50: Homo sapiens, NCI-H1975, 72 h
[8] = tested on: mRNA expression of RTK and non-RTK genes; assay: Quantitative RT-PCR after treatment, PC9 and H1975 cells; conditions: TPX-0005 1 μM alone or combined with an EGFR TKI, five days
[9] = tested on: phospho-STAT3 in PC9 cells; assay: Immunofluorescence and imaging flow cytometry of STAT3 / phospho-STAT3; conditions: 24 h
[10] = osimertinib 0.05, 0.8 and 0.02 μM respectively

Cc1nc(Nc2ncc(C(=O)Nc3c(C)cccc3Cl)s2)cc(N2CCN(CCO)CC2)n1 [Dasatinib]
STAT3 and FAK phosphorylation [1]: induced

COc1cc2ncnc(Nc3ccc(F)c(Cl)c3)c2cc1NC(=O)/C=C/CN1CCCCC1 [Dacomitinib]
pIC50 [2]: > 8.00 | pIC50 [3]: 8.00 | pIC50 [4]: > 8.00 | pIC50 [5]: > 8.00

C=CC(=O)Nc1cc(Nc2nccc(-c3cn(C)c4ccccc34)n2)c(OC)cc1N(C)CCN(C)C [Osimertinib]
pIC50 [2]: 8.00 | pIC50 [4]: 8.00 | pIC50 [5]: 7.70 | Src and FAK phosphorylation [6, 10]: induced | pIC50 [7]: 7.70

C[C@H]1CNC(=O)c2cnn3ccc(nc23)N[C@H](C)c2cc(F)ccc2O1 [TPX-0005]
mRNA expression of most of the transcripts explored [8]: abolished or attenuated | pIC50 [4]: 5.83 | pIC50 [5]: 6.00 | interaction of TPX-0005 with gefitinib (cell viability, colony formation) ([5]; PC9 cells): synergistic | STAT3 activation state by intracellular localization (immunofluorescence) [9]: did not occur | AXL total protein expression [6]: minor effect | CDCP1 phosphorylation [6, 10]: diminished | Src and FAK phosphorylation [6, 10]: abrogated | interaction of TPX-0005 with osimertinib (cell viability, colony formation) [7]: synergistic | pIC50 [7]: 6.00
